Measured values from BindingDB's records for PubMed 37235998 (Nanjing University of Chinese Medicine).

Assays:
[1] = target: T1, Isocitrate dehydrogenase [NADP], mitochondrial (Homo sapiens, UniProt P48735); assay: Inhibition of N-terminal His-tagged human recombinant IDH2 R140Q mutant (41 to 452) expressed in baculovirus system incubated for 60 mins by size-exclusion chromatography analysis
T1 sequence (P48735 whole entry): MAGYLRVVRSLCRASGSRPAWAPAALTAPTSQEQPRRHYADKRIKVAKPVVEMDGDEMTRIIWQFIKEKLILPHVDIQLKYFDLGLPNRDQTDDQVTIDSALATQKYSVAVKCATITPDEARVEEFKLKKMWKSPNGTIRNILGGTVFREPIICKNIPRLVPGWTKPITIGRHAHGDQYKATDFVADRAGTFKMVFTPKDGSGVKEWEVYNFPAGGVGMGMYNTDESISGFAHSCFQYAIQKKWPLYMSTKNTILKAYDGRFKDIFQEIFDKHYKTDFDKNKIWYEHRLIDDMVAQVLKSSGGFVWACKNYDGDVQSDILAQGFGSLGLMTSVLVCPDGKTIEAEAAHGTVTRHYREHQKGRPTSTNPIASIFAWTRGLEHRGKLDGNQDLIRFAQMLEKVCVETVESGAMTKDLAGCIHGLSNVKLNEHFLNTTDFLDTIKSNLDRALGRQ

[2] = target: Isocitrate dehydrogenase [NADP] cytoplasmic (Homo sapiens, UniProt O75874); assay: Inhibition of N-terminal His-tagged human recombinant IDH1 R132H mutant (1 to 414) expressed in Sf9 incubated for 60 mins by size-exclusion chromatography analysis
Isocitrate dehydrogenase [NADP] cytoplasmic, sequence (O75874 2-414 R132H limits assumed): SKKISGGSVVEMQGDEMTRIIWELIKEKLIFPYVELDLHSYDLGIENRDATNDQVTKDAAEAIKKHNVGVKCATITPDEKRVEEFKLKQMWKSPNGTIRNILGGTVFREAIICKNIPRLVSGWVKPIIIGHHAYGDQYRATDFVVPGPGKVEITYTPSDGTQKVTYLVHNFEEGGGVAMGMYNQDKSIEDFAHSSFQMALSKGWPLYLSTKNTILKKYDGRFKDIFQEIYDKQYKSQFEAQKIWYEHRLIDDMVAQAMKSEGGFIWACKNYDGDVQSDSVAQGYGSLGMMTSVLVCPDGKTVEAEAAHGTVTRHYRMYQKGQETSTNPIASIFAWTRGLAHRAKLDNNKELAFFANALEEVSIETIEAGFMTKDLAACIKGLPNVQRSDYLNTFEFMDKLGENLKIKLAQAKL

Row | SMILES | IC50 [1] | IC50 [2]
1 | C[C@@H](Nc1nc(Nc2ccnc(C3(C#N)CC3)c2)nc(-c2cccc(C(F)(F)F)n2)n1)C(F)(F)F [US10028961, Compound 352] | < 50 nM | 
2 | FC1(F)CCC(Nc2nc(NC3Cc4ccccc4C3)nc(-c3cccc(C(F)(F)F)n3)n2)C1 (stereo not drawn) [US10028961, Compound 152] | < 50 nM | < 50 nM
